These results are taken from US9187472B2 (AbbVie Inc., priority 2012, dated 2015).

One experiment relates to PC3 cells. In words: NAMPT Cell Proliferation Assay. The format is cell-based. The conditions noted are these: Homo sapiens, PC-3, 120 h, 5 days incubation, cell viability by Cell Titer Glo. A digest of the protocol: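 Following overnight attachment in RPMI with 10% heat-inactivated FBS, PC3 cells at 500 per well receive compounds spanning 10 μM down to 1×10^−5 μM. Growth is assessed by luminescent viability read after 5 days.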

A further experiment has as its target NAMPT (Homo sapiens, UniProt P43490). In words: TR-FRET Binding Assay of NAMPT with PRPP. As to conditions: with 200 μM PRPP and 2.5 mM ATP; 2 nM NAMPT, 2 nM probe, 16 hours equilibration. Put shortly: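 Run in the presence of substrates (200 μM PRPP, 2.5 mM ATP) with final 2 nM NAMPT, 2 nM probe, 1 nM Tb-anti-His antibody and 2% DMSO. Mixtures equilibrated 16 h before TR-FRET measurement so test compounds could be enzymatically modified.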

Experiment [1] deals with NAMPT (human, recombinant, C-terminally His-tagged) (Homo sapiens, UniProt P43490). In words: Time-Resolved Fluorescence Resonance Energy Transfer (TR-FRET) Binding Assay of NAMPT. The conditions noted are these: without substrates; 6.8 nM NAMPT, 200 nM probe, 3 hours equilibration. Put shortly:
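Probe displacement by compound was measured with 6.8 nM NAMPT, 200 nM Oregon Green 488-conjugated nicotinamide-competitive inhibitor probe and 1 nM Tb-anti-His antibody in 50 mM HEPES pH 7.5, 100 mM NaCl, 10 mM MgCl2, 1 mM DTT, 1% glycerol, 2% DMSO (final). After 3 h at room temperature, TR-FRET was read; IC50 from four-parameter logistic fit.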

Sequence of NAMPT (P43490 whole entry): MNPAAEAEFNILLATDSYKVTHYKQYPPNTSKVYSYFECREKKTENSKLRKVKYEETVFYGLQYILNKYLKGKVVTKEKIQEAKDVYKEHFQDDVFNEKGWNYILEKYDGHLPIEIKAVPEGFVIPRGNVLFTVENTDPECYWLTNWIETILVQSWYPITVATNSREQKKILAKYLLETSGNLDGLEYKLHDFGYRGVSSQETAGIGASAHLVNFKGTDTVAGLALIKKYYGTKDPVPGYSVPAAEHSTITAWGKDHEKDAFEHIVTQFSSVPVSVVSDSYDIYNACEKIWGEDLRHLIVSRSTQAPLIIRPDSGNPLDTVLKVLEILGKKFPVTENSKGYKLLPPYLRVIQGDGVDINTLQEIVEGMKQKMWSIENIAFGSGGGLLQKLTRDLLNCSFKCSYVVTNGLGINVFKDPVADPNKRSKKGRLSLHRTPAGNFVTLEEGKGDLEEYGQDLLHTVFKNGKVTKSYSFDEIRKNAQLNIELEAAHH
Sequence of NAMPT (human, recombinant, C-terminally His-tagged) (P43490 whole entry): as above

Take `CC(C)C(=O)N1CCC(c2ccc(C(=O)NCc3ccn4ccnc4c3)o2)CC1` [Example 736, N-(imidazo[1,2-a]pyridin-7-ylmethyl)-5-[1-(2-methylpropanoyl)piperidin-4-yl]furan-2-carboxamide]: the IC50 in the experiment with PC3 cells was 8360 nM; on NAMPT, 0.73 nM; in experiment [1] it was 3090 nM.

For the compound `Cc1ccsc1C(=O)N1CCC(c2ccc(C(=O)NCc3ccn4ccnc4c3)cc2)CC1` [Example 524, N-(imidazo[1,2-a]pyridin-7-ylmethyl)-4-{1-[(3-methylthiophen-2-yl)carbonyl]piperidin-4-yl}benzamide], the IC50 amounted to 2.46 nM in the experiment on PC3 cells, 0.169 nM at NAMPT and 24.7 nM in experiment [1].

For `CC(=O)N1CCC(c2ccc(NC(=O)NCc3ccn4ccnc4c3)cc2)C1` (stereo not drawn) [Example 379, 1-[4-(1-acetylpyrrolidin-3-yl)phenyl]-3-(imidazo[1,2-a]pyridin-7-ylmethyl)urea], the IC50 in the experiment on PC3 cells stood at 370 nM; on NAMPT it was 0.29 nM; in experiment [1], 279 nM.

With `CCC(=O)N1CCC(c2ccc(C(=O)NCc3ccn4ccnc4c3)cc2)CC1` [Example 532, N-(imidazo[1,2-a]pyridin-7-ylmethyl)-4-(1-propanoylpiperidin-4-yl)benzamide], the IC50 in the experiment with PC3 cells is 92.7 nM; at NAMPT, 0.178 nM; in experiment [1], 338 nM.

Consider `CC(C)(C)OC(=O)N1CC(c2ccc(NC(=O)NCc3ccn4ccnc4c3)cc2)C1` [Example 364, tert-butyl 3-(4-{[(imidazo[1,2-a]pyridin-7-ylmethyl)carbamoyl]amino}phenyl)azetidine-1-carboxylate], for which the IC50 in the experiment with PC3 cells stood at 31 nM; on NAMPT, 0.172 nM; in experiment [1], 135 nM.

Consider `O=C(NCc1ccn2ccnc2c1)Nc1ccc(OC2CCN(C(=O)c3ccccc3)CC2)cc1` [Example 445, 1-{4-[(1-benzoylpiperidin-4-yl)oxy]phenyl}-3-(imidazo[1,2-a]pyridin-7-ylmethyl)urea], for which the IC50 with PC3 cells came to 22.9 nM; on NAMPT it was 0.212 nM; in experiment [1], 110 nM.

Regarding `CC(C)CCNC(=O)c1ccc(NC(=O)NCc2ccc3nccn3c2)cc1` [Example 59, 4-{[(imidazo[1,2-a]pyridin-6-ylmethyl)carbamoyl]amino}-N-(3-methylbutyl)benzamide], the values for the IC50 (in the experiment on PC3 cells; on NAMPT; in experiment [1]) were 143 nM, 0.695 nM and 222 nM, respectively.

With `CC(C)(O)C(=O)N1CC=C(c2ccc(C(=O)NCc3ccc4nccn4c3)cc2)CC1` [Example 91, 4-[1-(2-hydroxy-2-methylpropanoyl)-1,2,3,6-tetrahydropyridin-4-yl]-N-(imidazo[1,2-a]pyridin-6-ylmethyl)benzamide], the 50% inhibitory concentration (IC50) turned out to be 13.9 nM in the experiment with PC3 cells, 1.26 nM on NAMPT and 174 nM in experiment [1].

For the compound `O=C(NCc1ccn2ccnc2c1)c1ccc(C2CCN(C(=O)c3ccc(F)cc3)CC2)cc1` [Example 508, 4-[1-(4-fluorobenzoyl)piperidin-4-yl]-N-(imidazo[1,2-a]pyridin-7-ylmethyl)benzamide], the IC50 with PC3 cells is 28.6 nM; at NAMPT it was 0.481 nM; in experiment [1] it was 257 nM.

For `COCCn1cc(-c2ccc(C(=O)NCc3ccn4ccnc4c3)s2)cn1` [Example 269, N-(imidazo[1,2-a]pyridin-7-ylmethyl)-5-[1-(2-methoxyethyl)-1H-pyrazol-4-yl]thiophene-2-carboxamide], the IC50 in the experiment on PC3 cells came out at 15.1 nM; on NAMPT, 0.169 nM; in experiment [1], 41.2 nM.

As to `CC(C)CCC(=O)Nc1ccc(C(=O)NCc2ccn3ccnc3c2)cc1` [Example 213, N-(imidazo[1,2-a]pyridin-7-ylmethyl)-4-[(4-methylpentanoyl)amino]benzamide], the figures for the IC50 (in the experiment with PC3 cells; on NAMPT; in experiment [1]) were 39.7 nM, 0.271 nM and 116 nM, respectively.

`Cn1cc(CC(=O)N(C[C@H]2CCCO2)c2ncc(C(=O)NCc3ccn4ccnc4c3)s2)cn1` [Example 202, N-(imidazo[1,2-a]pyridin-7-ylmethyl)-2-{[(1-methyl-1H-pyrazol-4-yl)acetyl][(2R)-tetrahydrofuran-2-ylmethyl]amino}-1,3-thiazole-5-carboxamide]: the IC50 was found to be 4.88 nM in the experiment with PC3 cells, 0.355 nM at NAMPT and 216 nM in experiment [1].

Turning to `CC(C)CS(=O)(=O)N1CC=C(c2ccc(C(=O)NCc3ccn4ccnc4c3)o2)CC1` [Example 753, N-(imidazo[1,2-a]pyridin-7-ylmethyl)-5-{1-[(2-methylpropyl)sulfonyl]-1,2,3,6-tetrahydropyridin-4-yl}furan-2-carboxamide], the IC50 in the experiment with PC3 cells was 74.6 nM; at NAMPT, 0.783 nM; in experiment [1] it was 403 nM.

Turning to `O=C(CC1CCCO1)Nc1ccc(C(=O)NCc2ccc3nccn3c2)cc1` (stereo not drawn) [Example 77, N-(imidazo[1,2-a]pyridin-6-ylmethyl)-4-[(tetrahydrofuran-2-ylacetyl)amino]benzamide], the figures for the IC50 (in the experiment with PC3 cells; at NAMPT; in experiment [1]) were 14.2 nM, 2.88 nM and 56.1 nM, respectively.

Turning to `CC(C)C(=O)N1CCC(Oc2ccc(C(=O)NCc3ccn4ccnc4c3)cc2)CC1` [Example 412, N-(imidazo[1,2-a]pyridin-7-ylmethyl)-4-{[1-(2-methylpropanoyl)piperidin-4-yl]oxy}benzamide], the results for the IC50 (with PC3 cells; at NAMPT; in experiment [1]) were 978 nM, 0.424 nM and 1250 nM, respectively.

For the compound `O=C(CC1CCCO1)Nc1ccc(NC(=O)NCc2ccc3nccn3c2)cc1` (stereo not drawn) [Example 277, N-(4-{[(imidazo[1,2-a]pyridin-6-ylmethyl)carbamoyl]amino}phenyl)-2-(tetrahydrofuran-2-yl)acetamide], the values for the IC50 (with PC3 cells; at NAMPT; in experiment [1]) were 83.2 nM, 0.667 nM and 103 nM, respectively.

On to `CC(C)OCC(=O)N1CC=C(c2ccc(C(=O)NCc3ccc4nccn4c3)cc2)CC1` [Example 98, N-(imidazo[1,2-a]pyridin-6-ylmethyl)-4-{1-[(propan-2-yloxy)acetyl]-1,2,3,6-tetrahydropyridin-4-yl}benzamide], for which the IC50 in the experiment on PC3 cells is 19.4 nM; on NAMPT it was 0.367 nM; in experiment [1], 120 nM.

With `Cn1cc(CCC(=O)N(C[C@H]2CCCO2)c2ncc(C(=O)NCc3ccn4ccnc4c3)s2)cn1` [Example 198, N-(imidazo[1,2-a]pyridin-7-ylmethyl)-2-{[3-(1-methyl-1H-pyrazol-4-yl)propanoyl][(2R)-tetrahydrofuran-2-ylmethyl]amino}-1,3-thiazole-5-carboxamide], the IC50 came out at 1.84 nM in the experiment on PC3 cells, 0.225 nM on NAMPT and 32.5 nM in experiment [1].

For the compound `CC(C)CC(=O)N(Cc1ccc(C#N)cc1)c1ncc(C(=O)NCc2ccc3nccn3c2)s1` [Example 55, 2-[(4-cyanobenzyl)(3-methylbutanoyl)amino]-N-(imidazo[1,2-a]pyridin-6-ylmethyl)-1,3-thiazole-5-carboxamide], the values for the IC50 (in the experiment on PC3 cells; at NAMPT; in experiment [1]) were 14.6 nM, 1.37 nM and 364 nM, respectively.

Consider `O=C(NCc1ccn2ccnc2c1)c1ccc(-c2cnn(CC3CCNCC3)c2)s1` [Example 485, N-(imidazo[1,2-a]pyridin-7-ylmethyl)-5-[1-(piperidin-4-ylmethyl)-1H-pyrazol-4-yl]thiophene-2-carboxamide], for which the IC50 in the experiment on PC3 cells amounted to 34.5 nM; on NAMPT, 0.205 nM; in experiment [1] it was 95.6 nM.

With `O=C(NCc1ccn2ccnc2c1)c1ccc(-c2cnn(CC3CCCCO3)c2)s1` (stereo not drawn) [Example 247, N-(imidazo[1,2-a]pyridin-7-ylmethyl)-5-[1-(tetrahydro-2H-pyran-2-ylmethyl)-1H-pyrazol-4-yl]thiophene-2-carboxamide], the IC50 with PC3 cells stood at 1.34 nM; on NAMPT, 0.275 nM; in experiment [1] it was 62.7 nM.

For `O=C(NCc1ccn2ccnc2c1)Nc1ccc(C2CCN(C(=O)c3ccccc3)CC2)cc1` [Example 229, 1-[4-(1-benzoylpiperidin-4-yl)phenyl]-3-(imidazo[1,2-a]pyridin-7-ylmethyl)urea], the IC50 is 1.06 nM with PC3 cells, 0.398 nM on NAMPT and 13.6 nM in experiment [1].

In the case of `O=C(NCc1ccn2ccnc2c1)c1ccc(-c2cnn(CC3CCOC3)c2)o1` (stereo not drawn) [Example 478, N-(imidazo[1,2-a]pyridin-7-ylmethyl)-5-[1-(tetrahydrofuran-3-ylmethyl)-1H-pyrazol-4-yl]furan-2-carboxamide], the IC50 in the experiment on PC3 cells turned out to be 31.2 nM; on NAMPT, 0.24 nM; in experiment [1], 192 nM.

For the compound `O=C(NCc1ccc2nccn2c1)c1ccc(C2=CCN(C(=O)CN3CCOCC3)CC2)cc1` [Example 92, N-(imidazo[1,2-a]pyridin-6-ylmethyl)-4-[1-(morpholin-4-ylacetyl)-1,2,3,6-tetrahydropyridin-4-yl]benzamide], the IC50 was found to be 9.48 nM in the experiment on PC3 cells, 0.881 nM on NAMPT and 183 nM in experiment [1].

With `CC(C)C(=O)NC1(c2ccc(C(=O)NCc3ccn4ccnc4c3)s2)CCC1` [Example 468, N-(imidazo[1,2-a]pyridin-7-ylmethyl)-5-{1-[(2-methylpropanoyl)amino]cyclobutyl}thiophene-2-carboxamide], the IC50 was 2930 nM in the experiment with PC3 cells, 0.985 nM on NAMPT and above 10000 nM in experiment [1].
